Data from US12636293B2, “Methods of treating charcot-marie-tooth disease” (CMTx Biotech Inc., priority 2019, dated 2026).

Legend:
[1] = dose of about 10 to about 20 mg/day; cited from earlier work
[2] = test system: Charcot Marie Tooth Disease symptoms (neuropathic pain); assay: Case of a subject with Charcot Marie Tooth Disease treated with sub-antimicrobial dose doxycycline; assay type: in vivo, human
Procedure: The subject described the pain during the daytime hours as a 2/10 and during the evening hours as a 6/10, and experienced this pain consistently for the prior 10 years. The subject began taking a sub-antimicrobial dose of doxycycline, i.e., 20 mg twice daily (i.e. Periostat®). […] Throughout the treatment period, the subject described the pain during daytime hours as a 1/10, and during the evening hours also as a 1/10. […] Within 1 week of discontinuing twice-daily sub-antimicrobial dose doxycycline treatment, the subject experienced a return of the neuropathic pain in a sporadic manner.

NC(=O)C1=C(O)C[C@@H]2C[C@@H]3Cc4cccc(O)c4C(=O)C3=C(O)[C@]2(O)C1=O [CMT-3, 6-demethyl-6-deoxy-4-dedimethylaminotetracycline]
plasma concentrations in humans [1]: about 1.0 μg/ml

C[C@H]1c2cccc(O)c2C(=O)C2=C(O)[C@]3(O)C(=O)C(C(N)=O)=C(O)[C@@H](N(C)C)[C@@H]3[C@@H](O)[C@@H]21 [doxycycline, 6α-deoxy-5-hydroxytetracycline]
adverse events ([2]; 20 mg twice daily for a period of 12 weeks): no adverse events were observed
time to return of neuropathic pain (sporadic) after discontinuing treatment ([2]; after 12 weeks of 20 mg twice daily): ≤ 1 week
pain during daytime hours (subject's description) ([2]; person with CMTD, 20 mg twice daily, throughout the treatment period (12 weeks), before treatment 2/10): 1/10
pain during the evening hours (subject's description) ([2]; person with CMTD, 20 mg twice daily, throughout the treatment period (12 weeks), before treatment 6/10): 1/10
